Assay in all cases: LPS-stimulated whole bovine blood assay, MSD cytokine detection
Common to all, as to assay type: cell-based

Assay [1] has as its system TNF-α. Particulars: Bos taurus, read-out: TNF-α (IC50 μM).
For assay [2], the system named is IL-1β. Particulars: overstimulation of IL-1β, LPS-stimulated bovine whole blood.
Assay [3] has as its system IL-6. As to conditions: Bos taurus, read-out: IL-6 (IC50 μM). From the text:
In order to correlate RNA sequencing data to cytokine changes the whole blood assay was utilized. […] The enhancement result represents an overall stimulation of cytokine levels due to cellular stress or potential toxicity with increasing concentrations of the compound, representing a typical bell shape response curve for immunomodulatory activity.

The mark [4] stands for this setting: LPS-stimulated bovine whole blood.

Like-named read-outs stand apart in the source and are kept apart here.

In the case of `CCCN(C[C@]1(O)[C@H](C)O[C@@H](O[C@H]2[C@H](C)[C@@H](O[C@@H]3O[C@H](C)C[C@H](N(C)C(N)=O)[C@H]3O)[C@](C)(O)C[C@@H](C)CN[C@H](C)[C@@H](O)[C@](C)(O)[C@@H](CC)OC(=O)[C@@H]2C)C[C@@]1(C)OC)C(N)=O` [Example H-22, 1-((2S,3R,4S,6R)-2-(((2R,3S,4R,5R,8R,10R,11R,12S,13S,14R)-2-ethyl-3,4,10-trihydroxy-13-(((2R,4R,5S,6S)-5-hydroxy-4-methoxy-4,6-dimethyl-5-((1-propylureido)methyl)tetrahydro-2H-pyran-2-yl)oxy)-3,5,8,10,12,14-hexamethyl-15-oxo-1-oxa-6-azacyclopentadecan-11-yl)oxy)-3-hydroxy-6-methyltetrahydro-2H-pyran-4-yl)-1-methylurea], the 50% inhibitory concentration (IC50) in assay [1] (setting [4]) and in assay [3] (setting [4]) was greater than 500 µM in each case. For the same compound, the “IL-1β OS of LPS” value in assay [2] is greater than 500 µM.

On to `CC[C@H]1OC(=O)[C@H](C)[C@@H](O[C@H]2C[C@@](C)(OC)[C@](O)(CNCCN(C)C)[C@H](C)O2)[C@H](C)[C@@H](O[C@@H]2O[C@H](C)C[C@H](N(C)C(=O)N(C)c3ccccc3)[C@H]2O)[C@](C)(O)C[C@@H](C)CN[C@H](C)[C@@H](O)[C@]1(C)O` [Example H-20, 1-((2S,3R,4S,6R)-2-(((2R,3S,4R,5R,8R,10R,11R,12S,13S,14R)-13-(((2R,4R,5S,6S)-5-(((2-(dimethylamino)ethyl)amino)methyl)-5-hydroxy-4-methoxy-4,6-dimethyltetrahydro-2H-pyran-2-yl)oxy)-2-ethyl-3,4,10-trihydroxy-3,5,8,10,12,14-hexamethyl-15-oxo-1-oxa-6-azacyclopentadecan-11-yl)oxy)-3-hydroxy-6-methyltetrahydro-2H-pyran-4-yl)-1,3-dimethyl-3-phenylurea], for which the concentration for half-maximal inhibition (IC50) (commonly the concentration needed to halve the response being measured) in assay [1] (setting [4]) is 31 µM; in assay [3] (setting [4]), greater than 500 µM. Besides, the “IL-1β OS of LPS” value in assay [2] came to 6 µM.

With `CC[C@H]1OC(=O)[C@H](C)[C@@H](O[C@H]2C[C@@](C)(OC)[C@](O)(Cn3cnnn3)[C@H](C)O2)[C@H](C)[C@@H](O[C@@H]2O[C@H](C)C[C@H](N(C)C(=O)N(C)c3ccccc3)[C@H]2O)[C@](C)(O)C[C@@H](C)CN[C@H](C)[C@@H](O)[C@]1(C)O` [Example J-29, 1-((2S,3R,4S,6R)-2-(((2R,3S,4R,5R,8R,10R,11R,12S,13S,14R)-13-(((2R,4R,5S,6S)-5-((1H-tetrazol-1-yl)methyl)-5-hydroxy-4-methoxy-4,6-dimethyltetrahydro-2H-pyran-2-yl)oxy)-2-ethyl-3,4,10-trihydroxy-3,5,8,10,12,14-hexamethyl-15-oxo-1-oxa-6-azacyclopentadecan-11-yl)oxy)-3-hydroxy-6-methyltetrahydro-2H-pyran-4-yl)-1,3-dimethyl-3-phenylurea], the half-inhibitory concentration (IC50) in assay [1] came to 19 µM; in assay [3] it was 56 µM. The “IL-1β OS of LPS” value in assay [2] was found to be 40 µM.

On to `CC[C@H]1OC(=O)[C@H](C)[C@@H](O[C@H]2C[C@@](C)(OC)[C@](O)(CN)[C@H](C)O2)[C@H](C)[C@@H](O[C@@H]2O[C@H](C)C[C@H](N(C)C(=O)N(C)c3ccccc3)[C@H]2O)[C@](C)(O)C[C@@H](C)CN[C@H](C)[C@@H](O)[C@]1(C)O` [Example H-66, 1-((2S,3R,4S,6R)-2-(((2R,3S,4R,5R,8R,10R,11R,12S,13S,14R)-13-(((2R,4R,5S,6S)-5-(aminomethyl)-5-hydroxy-4-methoxy-4,6-dimethyltetrahydro-2H-pyran-2-yl)oxy)-2-ethyl-3,4,10-trihydroxy-3,5,8,10,12,14-hexamethyl-15-oxo-1-oxa-6-azacyclopentadecan-11-yl)oxy)-3-hydroxy-6-methyltetrahydro-2H-pyran-4-yl)-1,3-dimethyl-3-phenylurea], for which the figures for the IC50 in assay [1] (setting [4]) and in assay [3] (setting [4]) were 106 µM and greater than 250 µM, respectively. Also, the “IL-1β OS of LPS” value in assay [2] worked out at 250 µM.

On to `CC[C@H]1OC(=O)[C@H](C)[C@@H](O[C@H]2C[C@@](C)(OC)[C@](O)(CN3CCN(C)CC3)[C@H](C)O2)[C@H](C)[C@@H](O[C@@H]2O[C@H](C)C[C@H](N(C)C(=O)Nc3cccnc3)[C@H]2O)[C@](C)(O)C[C@@H](C)CN[C@H](C)[C@@H](O)[C@]1(C)O` [Example J-8, 1-((2S,3R,4S,6R)-2-(((2R,3S,4R,5R,8R,10R,11R,12S,13S,14R)-2-ethyl-3,4,10-trihydroxy-13-(((2R,4R,5S,6S)-5-hydroxy-4-methoxy-4,6-dimethyl-5-((4-methylpiperazin-1-yl)methyl)tetrahydro-2H-pyran-2-yl)oxy)-3,5,8,10,12,14-hexamethyl-15-oxo-1-oxa-6-azacyclopentadecan-11-yl)oxy)-3-hydroxy-6-methyltetrahydro-2H-pyran-4-yl)-1-methyl-3-(pyridin-3-yl)urea], for which the IC50 in assay [1] (setting [4]) and in assay [3] (setting [4]) was greater than 500 µM each time. In addition, the “IL-1β OS of LPS” value in assay [2] is greater than 500 µM.

For `CC[C@H]1OC(=O)[C@H](C)[C@@H](O)[C@H](C)[C@@H](O[C@@H]2O[C@H](C)C[C@H](N(C)C(=O)Nc3ccccc3)[C@H]2O)[C@](C)(O)C[C@@H](C)CN[C@H](C)[C@@H](O)[C@]1(C)O` [Example A-13, 1-((2S,3R,4S,6R)-2-(((2R,3S,4R,5R,8R,10R,11R,12S,13S,14R)-2-ethyl-3,4,10,13-tetrahydroxy-3,5,8,10,12,14-hexamethyl-15-oxo-1-oxa-6-azacyclopentadecan-11-yl)oxy)-3-hydroxy-6-methyltetrahydro-2H-pyran-4-yl)-1-methyl-3-phenylurea], the IC50 in assay [1] (setting [4]) is 200 µM; in assay [3] (setting [4]), greater than 500 µM. Further, the “IL-1β OS of LPS” value in assay [2] was greater than 500 µM.

For the compound `CC[C@H]1OC(=O)[C@H](C)[C@@H](O)[C@H](C)[C@@H](O[C@@H]2O[C@H](C)C[C@H](N(C)C(=O)Nc3ccncc3)[C@H]2O)[C@](C)(O)C[C@@H](C)CN[C@H](C)[C@@H](O)[C@]1(C)O` [Example A-5, 1-((2S,3R,4S,6R)-2-(((2R,3S,4R,5R,8R,10R,11R,12S,13S,14R)-2-ethyl-3,4,10,13-tetrahydroxy-3,5,8,10,12,14-hexamethyl-15-oxo-1-oxa-6-azacyclopentadecan-11-yl)oxy)-3-hydroxy-6-methyltetrahydro-2H-pyran-4-yl)-1-methyl-3-(pyridin-4-yl)urea], the IC50 in assay [1] (setting [4]) and in assay [3] (setting [4]) was greater than 250 µM each time. For the same compound, in assay [2], the “IL-1β OS of LPS” value was found to be 24 µM.

Take `CCCNC[C@]1(O)[C@H](C)O[C@@H](O[C@H]2[C@H](C)[C@@H](O[C@@H]3O[C@H](C)C[C@H](N(C)C(=O)N(C)c4cnn(C)c4)[C@H]3O)[C@](C)(O)C[C@@H](C)CN[C@H](C)[C@@H](O)[C@](C)(O)[C@@H](CC)OC(=O)[C@@H]2C)C[C@@]1(C)OC` [Example H-58, 1-((2S,3R,4S,6R)-2-(((2R,3S,4R,5R,8R,10R,11R,12S,13S,14R)-2-ethyl-3,4,10-trihydroxy-13-(((2R,4R,5S,6S)-5-hydroxy-4-methoxy-4,6-dimethyl-5-((propylamino)methyl)tetrahydro-2H-pyran-2-yl)oxy)-3,5,8,10,12,14-hexamethyl-15-oxo-1-oxa-6-azacyclopentadecan-11-yl)oxy)-3-hydroxy-6-methyltetrahydro-2H-pyran-4-yl)-1,3-dimethyl-3-(1-methyl-1H-pyrazol-4-yl)urea]: the IC50 in assay [1] and in assay [3] was greater than 250 µM in each case. In assay [2], the “IL-1β OS of LPS” value is greater than 250 µM.

`CCCNC[C@]1(O)[C@H](C)O[C@@H](O[C@H]2[C@H](C)[C@@H](O[C@@H]3O[C@H](C)C[C@H](N(CC(C)C)C(=O)N(C)c4ccccc4)[C@H]3O)[C@](C)(O)C[C@@H](C)CN[C@H](C)[C@@H](O)[C@](C)(O)[C@@H](CC)OC(=O)[C@@H]2C)C[C@@]1(C)OC` [Example H-70, 1-((2S,3R,4S,6R)-2-(((2R,3S,4R,5R,8R,10R,11R,12S,13S,14R)-2-ethyl-3,4,10-trihydroxy-13-(((2R,4R,5S,6S)-5-hydroxy-4-methoxy-4,6-dimethyl-5-((propylamino)methyl)tetrahydro-2H-pyran-2-yl)oxy)-3,5,8,10,12,14-hexamethyl-15-oxo-1-oxa-6-azacyclopentadecan-11-yl)oxy)-3-hydroxy-6-methyltetrahydro-2H-pyran-4-yl)-1-isobutyl-3-methyl-3-phenylurea]: the values for the half-inhibitory concentration (IC50) in assay [1] (setting [4]) and in assay [3] (setting [4]) were 13 µM and 4 µM, respectively. In assay [2], the “IL-1β OS of LPS” value was determined as 6 µM.

With `CC[C@H]1OC(=O)[C@H](C)[C@@H](O[C@H]2C[C@@](C)(OC)[C@@H](O)[C@H](C)O2)[C@H](C)[C@@H](O[C@@H]2O[C@H](C)C[C@H](N(C)C(=O)N(C)c3ccccc3)[C@H]2O)[C@](C)(O)C[C@@H](C)CN[C@H](C)[C@@H](O)[C@]1(C)O` [Example B-3, 1-((2S,3R,4S,6R)-2-(((2R,3S,4R,5R,8R,10R,11R,12S,13S,14R)-2-ethyl-3,4,10-trihydroxy-13-(((2R,4R,5S,6S)-5-hydroxy-4-methoxy-4,6-dimethyltetrahydro-2H-pyran-2-yl)oxy)-3,5,8,10,12,14-hexamethyl-15-oxo-1-oxa-6-azacyclopentadecan-11-yl)oxy)-3-hydroxy-6-methyltetrahydro-2H-pyran-4-yl)-1,3-dimethyl-3-phenylurea], the figures for the half-maximal inhibitory concentration (IC50) in assay [1] (setting [4]) and in assay [3] (setting [4]) were 37 µM and 65 µM, respectively. For the same compound, in assay [2], the “IL-1β OS of LPS” value turned out to be 40 µM.

For the origin of these results see patent US12295936B2, “Immunomodulating urea azalides” (Zoetis Services LLC, priority 2020, dated 2025).
